Data: patent US8637525B2, “Compounds for the reduction of beta-amyloid production” (Bristol-Myers Squibb Company, priority 2009, dated 2014)
Where a name gives a salt, the structure may show the parent alone. Read-outs that look alike come from different tables or passages of the source.

System: Aβ1-42 production
Test: Cellular assay for inhibition of Aβ1-42 production (H4 APP751 SWE clone 8.20)
Type: cell-based
Conditions: 19 h, H4 APP751 SWE clone 8.20 cells, 19 h incubation
Method: Cellular Assays for Inhibition of Aβ1-40 and Aβ1-42 Production
H4 cells stably transfected with APP751 containing the Swedish mutation (H4 APP751 SWE clone 8.20, developed at BMS) were maintained in log phase through twice weekly passage at a 1:20 split. […] Following incubation for 19 h in 5% CO2 at 37° C., plates were briefly centrifuged (1000 rpm, 5 min). A 10 μl aliquot from each well was transferred to a second assay plate (Costar 3709) for Aβ40 measurements. Antibody cocktails were freshly prepared by dilution into 40 mM Tris-HCl (pH 7.4) with 0.2% BSA and added to assay plates. For Aβ42 measurements, antibodies specific for the Aβ42 neoepitope (565, developed at BMS; conjugated to the Wallac reagent (Perkin Elmer)) and the N-terminal sequence of Aβ peptide (26D6, developed at SIBIA; conjugated to APC (Perkin Elmer)) were mixed and 20 μl of the mixture was added to each well of the incubated cell plate yielding a final concentration of 0.8 ng/well 565 and 75 ng/well 26D6. For the Aβ40 measurements, antibodies specific for the Aβ40 neoepitope (TSD, developed at BMS; conjugated to the Wallac reagent (Perkin Elmer)) and 26D6 as described above were mixed and 20 μl of the mixture was added to the 10 μl aliquots which had been removed previously from the cell plate yielding a final concentration of 1.6 ng/well TSD and 17.5 ng/well 26D6. Assay plates containing antibodies were sealed with aluminum foil and incubated overnight at 4° C. Signal was determined using a Viewlux counter (Perkin Elmer) and IC50 values determined using curve fitting in CurveMaster (Excel Fit based).

[1] = class symbols, read-out: Activity Rating (Aβ42 cellular IC50)
[2] = read-out: Activity Rating (Aβ42 cellular IC50), numeric value

| Compound | IC50 [1] [nM] | IC50 [2] [nM] |
| --- | --- | --- |
| COc1cc(Nc2nc3c(c(N4CC(F)(F)C4)n2)COC3c2ccc(F)cc2)ccc1-n1cnc(Cl)c1 (racemic) [Example 80, N-(4-(4-chloro-1H-imidazol-1-yl)-3-methoxyphenyl)-4-(3,3-difluoroazetidin-1-yl)-7-(4-fluorophenyl)-5,7-dihydrofuro[3,4-d]pyrimidin-2-amine] | 10 to 100 | – |
| CNc1nc(Nc2ccc(-n3ncnc3C)c(F)c2)nc2c1COC2c1ccc(F)cc1 (racemic) [Example 82, N2-(3-fluoro-4-(5-methyl-1H-1,2,4-triazol-1-yl)phenyl)-7-(4-fluorophenyl)-N4-methyl-5,7-dihydrofuro[3,4-d]pyrimidine-2,4-diamine, TFA] | 10 to 100 | – |
| COc1cc(Nc2nc3c(c(N4C[C@@H](C)O[C@@H](C)C4)n2)COC3c2ccc(F)cc2)ccc1-n1cnc(Cl)c1 (mixture of isomers) [Example 84, N-(4-(4-chloro-1H-imidazol-1-yl)-3-methoxyphenyl)-4-((2S,6R)-2,6-dimethylmorpholino)-7-(4-fluorophenyl)-5,7-dihydrofuro[3,4-d]pyrimidin-2-amine, 2 TFA] | 10 to 100 | – |
| CCNc1nc(Nc2ccc(-n3cnc(Cl)c3)c(OC)c2)nc2c1CCOC2c1ccc(F)cc1 (racemic) [Example 88, N2-(4-(4-chloro-1H-imidazol-1-yl)-3-methoxyphenyl)-N4-ethyl-8-(4-fluorophenyl)-6,8-dihydro-5H-pyrano[3,4-d]pyrimidine-2,4-diamine] | 10 to 100 | – |
| CNc1nc(Nc2ccc(-n3cnc(Cl)c3)c(OC)c2)nc2c1CCC2c1ccc(Cl)cc1 (racemic) [Example 94, N^2-(4-(4-Chloro-1H-imidazol-1-yl)-3-methoxyphenyl)-7-(4-chlorophenyl)-N^4-methyl-6,7-dihydro-5H-cyclopenta[d]pyrimidine-2,4-diamine] | 1.5 to 9.9 | – |
| COc1cc(Nc2nc3c(c(N(C)C)n2)CCC3c2ccc(F)c(F)c2)ccc1-n1cnc(Cl)c1 (racemic) [Example 95, N^2-(4-(4-Chloro-1H-imidazol-1-yl)-3-methoxyphenyl)-7-(3,4-difluorophenyl)-N^4,N^4-dimethyl-6,7-dihydro-5H-cyclopenta[d]pyrimidine-2,4-diamine] | 1.5 to 9.9 | – |
| CNc1nc(Nc2ccc(-n3cnc(Cl)c3)c(OC)c2)nc2c1CCC2c1ccc(F)c(F)c1 (racemic) [Example 96, N^2-(4-(4-Chloro-1H-imidazol-1-yl)-3-methoxyphenyl)-7-(3,4-difluorophenyl)-N^4-methyl-6,7-dihydro-5H-cyclopenta[d]pyrimidine-2,4-diamine] | 1.5 to 9.9 | – |
| CNc1nc(Nc2ccc(-n3cnc(Cl)c3)c(OC)c2)nc2c1CCC2c1ccc(OC(F)(F)F)cc1 (racemic) [Example 97, N^2-(4-(4-Chloro-1H-imidazol-1-yl)-3-methoxyphenyl)-N^4-methyl-7-(4-(trifluoromethoxy)phenyl)-6,7-dihydro-5H-cyclopenta[d]pyrimidine-2,4-diamine] | 1.5 to 9.9 | – |
| CCNc1nc(Nc2ccc(-n3cnc(Cl)c3)c(OC)c2)nc2c1CCC2c1ccc(OC(F)(F)F)cc1 (racemic) [Example 98, N^2-(4-(4-Chloro-1H-imidazol-1-yl)-3-methoxyphenyl)-N^4-ethyl-7-(4-(trifluoromethoxy)phenyl)-6,7-dihydro-5H-cyclopenta[d]pyrimidine-2,4-diamine] | 10 to 100 | – |
| COc1cc(Nc2nc3c(c(N4CC(F)(F)C4)n2)CCC3c2ccc(OC(F)(F)F)cc2)ccc1-n1cnc(Cl)c1 (racemic) [Example 99, N-(4-(4-Chloro-1H-imidazol-1-yl)-3-methoxyphenyl)-4-(3,3-difluoroazetidin-1-yl)-7-(4-(trifluoromethoxy)phenyl)-6,7-dihydro-5H-cyclopenta[d]pyrimidin-2-amine] | – | 19 |
| COc1cc(Nc2nc3c(c(N(C)C)n2)CCC3c2ccc(OC(F)(F)F)cc2)ccc1-n1cnc(Cl)c1 (racemic) [Example 100, N^2-(4-(4-Chloro-1H-imidazol-1-yl)-3-methoxyphenyl)-N^4,N^4-dimethyl-7-(4-(trifluoromethoxy)phenyl)-6,7-dihydro-5H-cyclopenta[d]pyrimidine-2,4-diamine] | 1.5 to 9.9 | – |
| COc1cc(Nc2nc3c(c(N4CCC4)n2)CCC3c2ccc(OC(F)(F)F)cc2)ccc1-n1cnc(Cl)c1 (racemic) [Example 101, 4-(Azetidin-1-yl)-N-(4-(4-chloro-1H-imidazol-1-yl)-3-methoxyphenyl)-7-(4-(trifluoromethoxy)phenyl)-6,7-dihydro-5H-cyclopenta[d]pyrimidin-2-amine] | 10 to 100 | – |
| CNc1nc(Nc2ccc(-n3cnc(Cl)c3)c(OC)c2)nc2c1CCC2c1cc(F)cc(F)c1 (racemic) [Example 102, N^2-(4-(4-Chloro-1H-imidazol-1-yl)-3-methoxyphenyl)-7-(3,5-difluorophenyl)-N^4-methyl-6,7-dihydro-5H-cyclopenta[d]pyrimidine-2,4-diamine] | 1.5 to 9.9 | – |
| CNc1nc(Nc2ccc(-n3cnc(Cl)c3)c(OC)c2)nc2c1CCC2c1cc(F)c(F)c(F)c1 (racemic) [Example 103, N^2-(4-(4-chloro-1H-imidazol-1-yl)-3-methoxyphenyl)-N^4-methyl-7-(3,4,5-trifluorophenyl)-6,7-dihydro-5H-cyclopenta[d]pyrimidine-2,4-diamine] | 1.5 to 9.9 | – |
| COc1cc(Nc2nc3c(c(N4CCC(F)(F)C4)n2)CCC3c2cc(F)c(F)c(F)c2)ccc1-n1cnc(Cl)c1 (racemic) [Example 107, N-(4-(4-Chloro-1H-imidazol-1-yl)-3-methoxyphenyl)-4-(3,3-difluoropyrrolidin-1-yl)-7-(3,4,5-trifluorophenyl)-6,7-dihydro-5H-cyclopenta[d]pyrimidin-2-amine] | 10 to 100 | – |
| CCNc1nc(Nc2ccc(-n3cnc(Cl)c3)c(OC)c2)nc2c1COCC2c1cc(F)cc(F)c1 (racemic) [Example 112, N2-(4-(4-chloro-1H-imidazol-1-yl)-3-methoxyphenyl)-8-(3,5-difluorophenyl)-N4-ethyl-7,8-dihydro-5H-pyrano[4,3-d]pyrimidine-2,4-diamine, TFA] | 1.5 to 9.9 | – |
| CCNc1nc(Nc2ccc(-n3cnc(Cl)c3)c(OC)c2)nc2c1COCC2c1ccc(F)c(F)c1 (racemic) [Example 113, N2-(4-(4-chloro-1H-imidazol-1-yl)-3-methoxyphenyl)-8-(3,4-difluorophenyl)-N4-ethyl-7,8-dihydro-5H-pyrano[4,3-d]pyrimidine-2,4-diamine, TFA] | – | 5.7 |
| COc1cc(Nc2nc3c(c(N4CC(F)(F)C4)n2)COCC3c2ccc(F)c(F)c2)ccc1-n1cnc(Cl)c1 (racemic) [Example 114, N-(4-(4-chloro-1H-imidazol-1-yl)-3-methoxyphenyl)-4-(3,3-difluoroazetidin-1-yl)-8-(3,4-difluorophenyl)-7,8-dihydro-5H-pyrano[4,3-d]pyrimidin-2-amine, TFA] | 1.5 to 9.9 | – |
| CNc1nc(Nc2ccc(-n3cnc(Cl)c3)c(OC)c2)nc2c1COCC2c1ccc(F)c(F)c1 (racemic) [Example 115, N2-(4-(4-chloro-1H-imidazol-1-yl)-3-methoxyphenyl)-8-(3,4-difluorophenyl)-N4-methyl-7,8-dihydro-5H-pyrano[4,3-d]pyrimidine-2,4-diamine, TFA] | 1.5 to 9.9 | – |
| CCNc1nc(Nc2ccc(-n3ncnc3C)c(F)c2)nc2c1COCC2c1ccc(F)c(F)c1 (racemic) [Example 116, 8-(3,4-difluorophenyl)-N4-ethyl-N2-(3-fluoro-4-(5-methyl-1H-1,2,4-triazol-1-yl)phenyl)-7,8-dihydro-5H-pyrano[4,3-d]pyrimidine-2,4-diamine, TFA] | 10 to 100 | – |
| CCNc1nc(Nc2ccc(-n3cnc(Cl)c3)c(OC)c2)nc2c1COCC2c1ccc(C(F)(F)F)cc1 (racemic) [Example 118, N2-(4-(4-chloro-1H-imidazol-1-yl)-3-methoxyphenyl)-N4-ethyl-8-(4-(trifluoromethyl)phenyl)-7,8-dihydro-5H-pyrano[4,3-d]pyrimidine-2,4-diamine, TFA] | 10 to 100 | – |
| CCNc1nc(Nc2ccc(-n3ncnc3C)c(F)c2)nc2c1COCC2c1ccc(C(F)(F)F)cc1 (racemic) [Example 119, N4-ethyl-N2-(3-fluoro-4-(5-methyl-1H-1,2,4-triazol-1-yl)phenyl)-8-(4-(trifluoromethyl)phenyl)-7,8-dihydro-5H-pyrano[4,3-d]pyrimidine-2,4-diamine, TFA] | 10 to 100 | – |
| CNc1nc(Nc2ccc(-n3cnc(Cl)c3)c(OC)c2)nc2c1COCC2c1ccc(C(F)(F)F)cc1 (racemic) [Example 120, N2-(4-(4-chloro-1H-imidazol-1-yl)-3-methoxyphenyl)-N4-methyl-8-(4-(trifluoromethyl)phenyl)-7,8-dihydro-5H-pyrano[4,3-d]pyrimidine-2,4-diamine, TFA] | 10 to 100 | – |
| CCNc1nc(Nc2ccc(-n3cnc(Cl)c3)c(OC)c2)nc2c1COCC2c1ccc(C#N)cc1 (racemic) [Example 121, 4-(2-(4-(4-chloro-1H-imidazol-1-yl)-3-methoxyphenylamino)-4-(ethylamino)-7,8-dihydro-5H-pyrano[4,3-d]pyrimidin-8-yl)benzonitrile, TFA] | 10 to 100 | – |
